Results on 3 molecules are retold here after publication PMC6054832, “Novel pharmacological maps of protein lysine methyltransferases: key for target deorphanization” (Journal of Cheminformatics, 2018).

The target in test [1] is T1, KMT5C (Homo sapiens, UniProt Q86Y97). Kind of test: radioactive [3H]SAM methyltransferase assay with nucleosome substrate (Eurofins), […]. Type of test: biochemical.
Test [2] deals with T2, NSD1 (Homo sapiens, UniProt Q96L73). The test is described as above. Type of test: biochemical.
The target in a further test is KMT2A (Homo sapiens, UniProt Q03164). Kind of test: biochemical. The arrangement: Eurofins radiometric methyltransferase inhibition assay with [3H]SAM and nucleosome, core histone or histone H3 substrate. The text has this:
(§1) Inhibitory activity assays for prospective validation

Test [3] addresses T1, KMT5C. Kind of test: biochemical. The arrangement: Eurofins radiometric methyltransferase inhibition assay with [3H]SAM and nucleosome, core histone or histone H3 substrate.
Text: as §1

The target in test [4] is T2, NSD1. Kind of test: biochemical. The arrangement: Eurofins radiometric methyltransferase inhibition assay with [3H]SAM and nucleosome, core histone or histone H3 substrate.
Text: as §1

The target of the next test is T3, NSD2 (Homo sapiens, UniProt O96028).
T3 sequence (O96028 1-1365): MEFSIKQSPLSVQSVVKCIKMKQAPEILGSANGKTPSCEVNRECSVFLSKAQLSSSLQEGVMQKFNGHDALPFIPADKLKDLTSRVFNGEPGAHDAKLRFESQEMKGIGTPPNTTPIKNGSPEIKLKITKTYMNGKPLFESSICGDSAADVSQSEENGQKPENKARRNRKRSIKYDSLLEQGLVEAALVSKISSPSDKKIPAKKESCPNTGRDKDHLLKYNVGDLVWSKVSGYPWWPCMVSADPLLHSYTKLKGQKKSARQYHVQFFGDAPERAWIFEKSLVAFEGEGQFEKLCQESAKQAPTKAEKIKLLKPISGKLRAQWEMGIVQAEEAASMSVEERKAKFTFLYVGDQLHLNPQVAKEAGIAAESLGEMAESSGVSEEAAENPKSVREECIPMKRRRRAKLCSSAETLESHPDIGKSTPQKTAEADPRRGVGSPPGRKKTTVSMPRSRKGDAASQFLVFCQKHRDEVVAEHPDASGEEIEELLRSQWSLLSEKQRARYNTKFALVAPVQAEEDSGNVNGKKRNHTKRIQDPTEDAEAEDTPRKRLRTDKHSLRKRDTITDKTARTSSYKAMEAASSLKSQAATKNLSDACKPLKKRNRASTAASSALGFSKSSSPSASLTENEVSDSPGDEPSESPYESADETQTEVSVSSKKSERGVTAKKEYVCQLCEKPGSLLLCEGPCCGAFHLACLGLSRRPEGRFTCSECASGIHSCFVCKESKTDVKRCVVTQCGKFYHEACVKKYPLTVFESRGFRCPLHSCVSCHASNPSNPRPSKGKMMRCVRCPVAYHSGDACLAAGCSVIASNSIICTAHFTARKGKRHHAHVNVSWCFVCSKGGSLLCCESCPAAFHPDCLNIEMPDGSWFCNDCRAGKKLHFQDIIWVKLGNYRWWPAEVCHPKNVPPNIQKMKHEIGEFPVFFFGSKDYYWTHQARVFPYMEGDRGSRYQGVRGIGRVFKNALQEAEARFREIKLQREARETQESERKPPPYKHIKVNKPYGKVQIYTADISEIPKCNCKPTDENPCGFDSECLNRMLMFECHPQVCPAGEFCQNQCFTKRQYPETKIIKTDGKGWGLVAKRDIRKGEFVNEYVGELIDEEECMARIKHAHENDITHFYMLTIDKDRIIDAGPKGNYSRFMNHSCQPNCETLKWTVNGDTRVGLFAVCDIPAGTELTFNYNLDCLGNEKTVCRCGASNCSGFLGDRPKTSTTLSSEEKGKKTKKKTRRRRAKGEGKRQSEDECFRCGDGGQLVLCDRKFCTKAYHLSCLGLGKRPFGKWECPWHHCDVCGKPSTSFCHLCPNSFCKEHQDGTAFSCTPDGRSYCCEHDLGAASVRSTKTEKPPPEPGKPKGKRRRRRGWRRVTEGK
Nature of the test: biochemical. Details: Eurofins radiometric methyltransferase inhibition assay with [3H]SAM and nucleosome, core histone or histone H3 substrate.
Text: as §1

Test [5] addresses T4, SETD2 (Homo sapiens, UniProt Q9BYW2). Nature of the test: biochemical. Details: Eurofins radiometric methyltransferase inhibition assay with [3H]SAM and nucleosome, core histone or histone H3 substrate.
Text: as §1

Test [6] addresses T4, SETD2. Nature of the test: radioactive [3H]SAM methyltransferase assay with nucleosome substrate (Eurofins), […]. Type of test: biochemical.

KMT2A, sequence (Q03164 whole entry): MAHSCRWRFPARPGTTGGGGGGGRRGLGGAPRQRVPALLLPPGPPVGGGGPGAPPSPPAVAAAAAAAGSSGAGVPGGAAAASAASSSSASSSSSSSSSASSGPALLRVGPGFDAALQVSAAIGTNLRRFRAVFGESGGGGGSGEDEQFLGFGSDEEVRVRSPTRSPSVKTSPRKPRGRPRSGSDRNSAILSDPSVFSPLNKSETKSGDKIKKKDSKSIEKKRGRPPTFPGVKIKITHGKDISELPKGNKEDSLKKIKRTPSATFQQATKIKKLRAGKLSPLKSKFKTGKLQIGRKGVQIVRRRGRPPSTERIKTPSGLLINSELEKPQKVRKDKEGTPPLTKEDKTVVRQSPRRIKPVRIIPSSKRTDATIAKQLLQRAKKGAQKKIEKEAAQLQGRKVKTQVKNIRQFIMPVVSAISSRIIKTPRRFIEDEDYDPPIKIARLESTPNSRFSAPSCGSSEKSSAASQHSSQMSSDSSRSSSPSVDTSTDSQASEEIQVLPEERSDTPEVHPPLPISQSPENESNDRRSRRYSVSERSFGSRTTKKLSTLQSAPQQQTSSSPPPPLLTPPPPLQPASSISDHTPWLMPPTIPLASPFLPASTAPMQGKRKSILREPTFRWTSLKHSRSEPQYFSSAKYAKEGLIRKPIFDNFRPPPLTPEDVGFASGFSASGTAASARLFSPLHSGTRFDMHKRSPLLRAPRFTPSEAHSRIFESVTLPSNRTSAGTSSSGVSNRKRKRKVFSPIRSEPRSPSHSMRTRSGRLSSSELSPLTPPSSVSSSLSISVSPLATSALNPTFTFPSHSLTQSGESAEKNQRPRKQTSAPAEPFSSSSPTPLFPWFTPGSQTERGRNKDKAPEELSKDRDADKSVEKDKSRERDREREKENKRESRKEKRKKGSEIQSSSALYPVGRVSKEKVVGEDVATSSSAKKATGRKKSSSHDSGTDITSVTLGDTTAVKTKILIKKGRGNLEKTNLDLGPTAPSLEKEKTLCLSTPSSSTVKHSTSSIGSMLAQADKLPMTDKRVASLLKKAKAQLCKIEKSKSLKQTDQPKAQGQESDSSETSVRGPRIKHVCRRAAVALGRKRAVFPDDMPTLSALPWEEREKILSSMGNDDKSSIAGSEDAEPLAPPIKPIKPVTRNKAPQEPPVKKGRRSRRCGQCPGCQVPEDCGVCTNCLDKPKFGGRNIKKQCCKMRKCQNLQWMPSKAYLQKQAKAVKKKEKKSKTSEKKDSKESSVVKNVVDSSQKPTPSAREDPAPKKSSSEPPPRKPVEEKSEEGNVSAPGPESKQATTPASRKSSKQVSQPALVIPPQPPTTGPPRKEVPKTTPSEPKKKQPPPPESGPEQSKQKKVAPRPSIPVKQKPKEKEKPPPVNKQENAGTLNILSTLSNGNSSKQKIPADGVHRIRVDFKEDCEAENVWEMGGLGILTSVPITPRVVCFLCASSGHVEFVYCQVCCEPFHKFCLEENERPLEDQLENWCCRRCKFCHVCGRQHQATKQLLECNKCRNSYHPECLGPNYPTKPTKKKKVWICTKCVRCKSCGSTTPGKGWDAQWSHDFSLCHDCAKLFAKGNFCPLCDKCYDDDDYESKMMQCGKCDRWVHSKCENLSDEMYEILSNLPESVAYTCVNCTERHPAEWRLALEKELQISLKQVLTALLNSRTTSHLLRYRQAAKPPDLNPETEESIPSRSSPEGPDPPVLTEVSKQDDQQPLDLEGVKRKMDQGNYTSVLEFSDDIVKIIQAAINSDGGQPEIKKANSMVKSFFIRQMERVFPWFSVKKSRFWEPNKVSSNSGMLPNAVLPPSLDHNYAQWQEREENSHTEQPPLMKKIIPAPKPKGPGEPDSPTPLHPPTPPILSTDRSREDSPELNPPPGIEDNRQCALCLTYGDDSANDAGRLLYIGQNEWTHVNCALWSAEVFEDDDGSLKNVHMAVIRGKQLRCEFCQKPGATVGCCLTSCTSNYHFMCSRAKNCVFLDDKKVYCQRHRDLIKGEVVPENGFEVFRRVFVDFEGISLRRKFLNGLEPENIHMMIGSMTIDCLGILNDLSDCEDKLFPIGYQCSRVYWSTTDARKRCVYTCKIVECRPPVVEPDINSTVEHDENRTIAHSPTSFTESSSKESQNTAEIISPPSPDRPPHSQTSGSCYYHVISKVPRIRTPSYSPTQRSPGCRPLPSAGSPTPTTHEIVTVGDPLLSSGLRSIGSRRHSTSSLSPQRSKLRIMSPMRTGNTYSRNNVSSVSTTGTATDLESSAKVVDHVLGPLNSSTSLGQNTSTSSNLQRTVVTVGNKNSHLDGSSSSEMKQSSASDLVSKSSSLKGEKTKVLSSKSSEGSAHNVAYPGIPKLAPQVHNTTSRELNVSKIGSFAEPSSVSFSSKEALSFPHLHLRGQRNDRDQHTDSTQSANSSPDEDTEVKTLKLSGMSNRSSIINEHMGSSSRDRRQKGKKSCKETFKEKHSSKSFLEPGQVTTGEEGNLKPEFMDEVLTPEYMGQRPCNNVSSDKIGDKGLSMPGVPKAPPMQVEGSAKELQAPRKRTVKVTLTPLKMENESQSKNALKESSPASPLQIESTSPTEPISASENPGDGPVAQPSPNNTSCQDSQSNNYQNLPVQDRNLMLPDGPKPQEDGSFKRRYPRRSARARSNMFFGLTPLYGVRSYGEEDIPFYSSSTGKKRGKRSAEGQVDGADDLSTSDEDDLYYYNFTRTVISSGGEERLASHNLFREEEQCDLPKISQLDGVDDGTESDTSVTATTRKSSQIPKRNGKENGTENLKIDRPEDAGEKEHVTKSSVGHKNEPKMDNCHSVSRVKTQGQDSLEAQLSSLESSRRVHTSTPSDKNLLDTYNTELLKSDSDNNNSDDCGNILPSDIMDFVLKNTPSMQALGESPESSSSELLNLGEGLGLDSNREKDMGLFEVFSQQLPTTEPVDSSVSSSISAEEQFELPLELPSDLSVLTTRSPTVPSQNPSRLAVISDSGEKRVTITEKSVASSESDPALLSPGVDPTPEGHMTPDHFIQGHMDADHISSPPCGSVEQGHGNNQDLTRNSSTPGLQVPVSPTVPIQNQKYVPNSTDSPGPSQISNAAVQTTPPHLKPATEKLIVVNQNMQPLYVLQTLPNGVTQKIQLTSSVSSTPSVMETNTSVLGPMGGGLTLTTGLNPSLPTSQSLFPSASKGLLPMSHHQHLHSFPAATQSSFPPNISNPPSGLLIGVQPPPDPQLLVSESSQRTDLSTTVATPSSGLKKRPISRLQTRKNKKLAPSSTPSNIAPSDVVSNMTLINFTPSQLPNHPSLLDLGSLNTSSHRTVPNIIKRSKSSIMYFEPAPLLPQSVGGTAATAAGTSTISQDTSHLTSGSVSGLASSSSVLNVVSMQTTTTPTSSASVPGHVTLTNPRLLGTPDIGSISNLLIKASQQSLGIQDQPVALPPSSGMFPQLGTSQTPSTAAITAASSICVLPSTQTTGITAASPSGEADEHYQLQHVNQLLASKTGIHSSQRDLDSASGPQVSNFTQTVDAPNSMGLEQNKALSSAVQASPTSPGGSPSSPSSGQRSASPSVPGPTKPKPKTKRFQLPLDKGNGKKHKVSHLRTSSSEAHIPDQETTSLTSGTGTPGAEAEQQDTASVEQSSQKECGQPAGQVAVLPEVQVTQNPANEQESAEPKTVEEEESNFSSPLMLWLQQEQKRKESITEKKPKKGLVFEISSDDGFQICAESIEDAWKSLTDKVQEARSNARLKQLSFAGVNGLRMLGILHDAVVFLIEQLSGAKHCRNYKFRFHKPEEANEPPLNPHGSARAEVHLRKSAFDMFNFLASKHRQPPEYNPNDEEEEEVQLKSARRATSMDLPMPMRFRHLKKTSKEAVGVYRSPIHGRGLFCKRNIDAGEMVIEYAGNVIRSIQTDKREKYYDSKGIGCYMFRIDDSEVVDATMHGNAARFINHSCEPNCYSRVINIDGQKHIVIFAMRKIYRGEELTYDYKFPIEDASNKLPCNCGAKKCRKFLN
T1 sequence (Q86Y97 whole entry): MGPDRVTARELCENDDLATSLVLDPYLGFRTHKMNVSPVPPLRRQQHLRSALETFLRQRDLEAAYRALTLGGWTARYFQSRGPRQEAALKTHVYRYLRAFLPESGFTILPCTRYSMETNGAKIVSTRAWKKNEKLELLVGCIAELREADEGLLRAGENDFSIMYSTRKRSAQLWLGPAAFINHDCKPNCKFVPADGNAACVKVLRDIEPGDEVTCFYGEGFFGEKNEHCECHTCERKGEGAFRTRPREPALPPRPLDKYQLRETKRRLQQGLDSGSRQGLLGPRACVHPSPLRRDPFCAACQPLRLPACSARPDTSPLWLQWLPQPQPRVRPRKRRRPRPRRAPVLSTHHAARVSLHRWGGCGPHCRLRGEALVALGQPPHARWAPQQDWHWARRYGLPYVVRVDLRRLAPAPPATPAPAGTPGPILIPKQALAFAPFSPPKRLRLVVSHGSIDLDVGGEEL

Consider `COc1cc2c(NC3CCN(C)CC3)cc(-c3ccc(C)o3)nc2cc1OCCCN1CCCC1` [CM-272], for which the “radioactive [3H]SAM methyltransferase assay with nucleosome substrate (Eurofins)” value (“radioactive” for short) at KMT5C [1] is given as “low micromolar range”. The inhibition at 10 µM was greater than 50% at NSD1 [2]; -1% at KMT2A; 92% against KMT5C [3]; 63.5% at NSD1 [4]; -0.5% on NSD2. Moreover, the inhibition at 100 µM against KMT2A turned out to be 7.4%; at KMT5C [3], 91.8%; on NSD1 [4], 97.8%; against NSD2, 11.7%; against SETD2 [5] it was 45.9%.

Turning to `COc1cc2c(NC3CC4(CCN(C)CC4)C3)cc(-c3ccc(C)o3)nc2cc1OCCCN1CCCC1` [CM-679], the “radioactive” value at KMT5C [1] is on record as “low micromolar range”. For the same molecule, the inhibition at 100 µM on SETD2 [6] was 84%; against KMT2A, 48.8%; on KMT5C [3], 92.9%; against NSD1 [4], 98%; on NSD2, 0.3%. The inhibition at 10 µM is greater than 50% on NSD1 [2]; 8.6% at KMT2A; 85.7% at KMT5C [3]; 81.7% on NSD1 [4]; 11.9% on NSD2; -52.4% at SETD2 [5].

Turning to `COc1cc2c(NC3CCN(C)CC3)cc(-c3ccc(C)o3)nc2cc1OC1CC2(C1)CN(C)C2` [CM-986], at KMT5C [1], the “radioactive” value was “low micromolar range”. Besides, the inhibition at 10 µM at NSD1 [2] was greater than 50%; at KMT2A, 2.9%; against KMT5C [3] it was 79.1%; at NSD1 [4], 55.9%; against NSD2 it was -7.2%; at SETD2 [5], -69.8%. The inhibition at 100 µM against KMT2A was 30.5%; against KMT5C [3] it was 87.7%; against NSD1 [4] it was 98.8%; against NSD2, 2.7%; on SETD2 [5] it was 42.1%.
